Paper PMC7993727, “Discovery of a novel AR/HDAC6 dual inhibitor for prostate cancer treatment” (Aging (Albany NY), 2021)
pIC50: −log10 of the molar value. Where “and” joins values, the source holds several entries; their conditions need not be identical. Equal values may be shown once.

How the values were obtained:
[1] = pharmacokinetics of Zeta55 in rats; type: in vivo; conditions: for AUC(0-t): 0-72h
Protocol: To evaluate the pharmacokinetic properties of Zeta55 in vivo, rats were orally (20 mg/kg) or intravenously (5 mg/kg) administrated with Zeta55, and the plasma concentration of Zeta55 was measured using LC-MS/MS.
SD male rats weighing about 250 g were used for the pharmacokinetics study of Zeta55. After a fast of 12 hours, four rats were oral administrated with 20 mg/kg Zeta55 and one rat was tail vein injected with 5 mg/kg Zeta55. Plasma samples of 0.2 ml were taken at 0, 0.083, 0.25, 0.5, 1, 2, 3, 5, 8, 10, 24, 48, and 72 hours after administration and then measured by LC-MS/MS. AUC0-t, AUC0-∞, t1/2, Tmax, Vz/F, and Cl/F were analyzed by Phoenix winnonlin 8.0.

[2] = biological target: T1, HDAC3 (Homo sapiens, UniProt O15379); assay: fluorescent-based HDAC assay; type: biochemical
T1 construct: purchased BPS Bioscience
Protocol: (§1) Commercial fluorescent assay kits were used to measure the activities of HDAC (BPS Bioscience). Briefly, the tested compounds were diluted in DMSO into a 96-well plate, and then assay buffer, HDAC, and substrate were added. The plate was incubated at 37° C for 30 minutes for enzymatic reactions, and the developer was added. After 10 minutes of incubation, the generated fluorescence was measured at an excitation of 380 nm and an emission of 460 nm.

[3] = biological target: T2, HDAC1 (Homo sapiens, UniProt Q13547); assay: fluorescent-based HDAC assay; type: biochemical
T2 construct: purchased BPS Bioscience
Protocol: as §1

[4] = biological target: T3, HDAC4 (Homo sapiens, UniProt P56524); assay: fluorescent-based HDAC assay; type: biochemical
T3 construct: purchased BPS Bioscience
Protocol: as §1

[5] = tested on: TMPRSS2; assay: TMPRSS2 mRNA (qRT-PCR) and protein (Western blot) expression in VCaP cells; type: cell-based; conditions: 10 nM DHT, 24 hours
Protocol: RNA expression level was analyzed by qRT-PCR and protein expression level was analyzed by Western blot. […] (I) Representative immunofluorescence microscopic images of VCaP cells for checking the subcellular localization of AR.
The RNA of VCaP cells was extracted using a Simply P Total RNA Extraction kit (Bioer technology) and cDNA was synthesized using a SMARTer PCR cDNA Synthesis Kit (Clontech). PSA and β-actin primers were synthesized by Sangon Biotech according to previous literature. Real-time PCR was performed using the PowerUp SYBR™ Green kit (ThermoFisher). The PCR program was run on a LightCycler 480II (Roche) and set as follows: 2 minutes at 95° C followed by 40 cycles of 30 seconds at 95° C, 15 seconds at 60° C and 30 seconds at 72° C. Data were quantified using the 2-ΔΔCt method based on the Ct values of PSA and β-actin from two parallel experiments performed in triplicate.
The whole-cell extracts were prepared in lysis buffer with a protease inhibitor cocktail (Bimake), while the xenograft tissue extracts were prepared in 0.5% Nonidet P 40 Substitute solution (Biosharp) with cocktail protease inhibitor (Bimake). Each sample containing 30 μg of total protein was loaded onto 10% SDS-PAGE and electrotransferred onto polyvinylidene fluoride membranes. […]

[6] = biological target: T4, AR (Homo sapiens, UniProt P10275); type: cell-based; conditions: VCaP cells, 10% FBS, 10 μM, 24 hours
T4 construct: The VCaP cells were transfected with MMTV-LUC for 24 hours; endogenous in cells; host or cells: VCaP
T4 sequence (P10275 1-920): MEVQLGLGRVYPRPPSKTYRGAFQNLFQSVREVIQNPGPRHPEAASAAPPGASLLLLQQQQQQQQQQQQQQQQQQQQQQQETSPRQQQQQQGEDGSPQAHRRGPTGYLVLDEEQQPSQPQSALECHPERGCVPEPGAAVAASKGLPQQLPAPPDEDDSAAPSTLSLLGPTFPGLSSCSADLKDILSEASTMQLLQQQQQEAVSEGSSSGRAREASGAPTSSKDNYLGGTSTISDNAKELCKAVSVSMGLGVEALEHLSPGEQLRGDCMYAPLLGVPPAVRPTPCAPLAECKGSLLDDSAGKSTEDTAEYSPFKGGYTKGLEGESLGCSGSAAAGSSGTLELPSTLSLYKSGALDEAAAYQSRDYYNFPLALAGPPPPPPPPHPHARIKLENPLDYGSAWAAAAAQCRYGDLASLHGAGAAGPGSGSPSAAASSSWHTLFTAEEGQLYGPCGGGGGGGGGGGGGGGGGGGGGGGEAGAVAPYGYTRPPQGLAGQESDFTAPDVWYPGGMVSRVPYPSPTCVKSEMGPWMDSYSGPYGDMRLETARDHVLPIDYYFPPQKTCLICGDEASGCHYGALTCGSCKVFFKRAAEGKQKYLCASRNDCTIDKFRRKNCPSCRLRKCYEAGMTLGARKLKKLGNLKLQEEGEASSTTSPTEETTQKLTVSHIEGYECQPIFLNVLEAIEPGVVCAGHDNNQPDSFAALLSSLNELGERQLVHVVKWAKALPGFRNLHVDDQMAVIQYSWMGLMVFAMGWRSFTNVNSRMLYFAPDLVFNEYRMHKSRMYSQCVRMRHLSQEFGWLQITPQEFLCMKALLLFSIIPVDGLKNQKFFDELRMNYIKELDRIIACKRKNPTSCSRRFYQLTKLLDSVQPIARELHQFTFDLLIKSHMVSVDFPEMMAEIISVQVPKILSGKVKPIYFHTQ
Protocol: Cells were fixed with 4% paraformaldehyde for 15 minutes at room temperature, permeabilized with immunostaining permeate for 10 minutes and blocked with 5% BSA containing 1% Tween-20 for 1 hour. After overnight Immunostain with AR Rabbit monoclonal antibody (1:400;CST,5153S) at 4° C, a Cy3 conjugated Goat Anti-Rabbit IgG (1:300; Servicebio, GB21303) reacted for 1 hour. DAPI (4’,6-diamidine-2’-phenylindole, Servicebio, G1012) stained the nuclear to bule for 10 minutes in the dark. Washing three times with PBS between each step. Immunofluorescence images were acquired by fluorescence microscopy using a NIKON ECLIPSE CI microscope (Nikon Corporation; magnification).

[7] = biological target: T4, AR; assay: cell-based; type: cell-based; conditions: VCaP cells
Protocol: To evaluate the AR inhibition activities of Zeta55, an AR luciferase activity assay was performed (Table 1 and Supplementary Figure 1). […] To evaluate the HDAC inhibition activities of Zeta55, fluorescent-based HDAC assays were performed (Table 1 and Supplementary Figure 3).

[8] = IV, tail vein injection 5 mg/kg, n=1, rats
[9] = male, SD, rat, plasma, IV, tail vein injection 5 mg/kg, n=1, rats
[10] = male, SD, rat, plasma, PO, oral gavage 20 mg/kg, n=4, rats

T2 sequence (Q13547 whole entry): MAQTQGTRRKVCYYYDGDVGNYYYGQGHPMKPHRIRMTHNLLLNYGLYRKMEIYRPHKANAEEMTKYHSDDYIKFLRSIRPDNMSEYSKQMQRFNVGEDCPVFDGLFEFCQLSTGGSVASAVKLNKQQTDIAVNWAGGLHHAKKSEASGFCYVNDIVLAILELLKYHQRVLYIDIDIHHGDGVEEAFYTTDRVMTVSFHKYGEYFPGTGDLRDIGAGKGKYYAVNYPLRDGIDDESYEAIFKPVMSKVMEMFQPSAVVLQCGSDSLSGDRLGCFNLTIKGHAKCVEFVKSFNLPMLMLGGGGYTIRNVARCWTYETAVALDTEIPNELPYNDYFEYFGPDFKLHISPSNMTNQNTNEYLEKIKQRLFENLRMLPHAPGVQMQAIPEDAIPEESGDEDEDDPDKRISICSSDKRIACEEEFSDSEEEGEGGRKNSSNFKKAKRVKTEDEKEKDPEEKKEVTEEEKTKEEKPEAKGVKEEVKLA
T3 sequence (P56524 whole entry): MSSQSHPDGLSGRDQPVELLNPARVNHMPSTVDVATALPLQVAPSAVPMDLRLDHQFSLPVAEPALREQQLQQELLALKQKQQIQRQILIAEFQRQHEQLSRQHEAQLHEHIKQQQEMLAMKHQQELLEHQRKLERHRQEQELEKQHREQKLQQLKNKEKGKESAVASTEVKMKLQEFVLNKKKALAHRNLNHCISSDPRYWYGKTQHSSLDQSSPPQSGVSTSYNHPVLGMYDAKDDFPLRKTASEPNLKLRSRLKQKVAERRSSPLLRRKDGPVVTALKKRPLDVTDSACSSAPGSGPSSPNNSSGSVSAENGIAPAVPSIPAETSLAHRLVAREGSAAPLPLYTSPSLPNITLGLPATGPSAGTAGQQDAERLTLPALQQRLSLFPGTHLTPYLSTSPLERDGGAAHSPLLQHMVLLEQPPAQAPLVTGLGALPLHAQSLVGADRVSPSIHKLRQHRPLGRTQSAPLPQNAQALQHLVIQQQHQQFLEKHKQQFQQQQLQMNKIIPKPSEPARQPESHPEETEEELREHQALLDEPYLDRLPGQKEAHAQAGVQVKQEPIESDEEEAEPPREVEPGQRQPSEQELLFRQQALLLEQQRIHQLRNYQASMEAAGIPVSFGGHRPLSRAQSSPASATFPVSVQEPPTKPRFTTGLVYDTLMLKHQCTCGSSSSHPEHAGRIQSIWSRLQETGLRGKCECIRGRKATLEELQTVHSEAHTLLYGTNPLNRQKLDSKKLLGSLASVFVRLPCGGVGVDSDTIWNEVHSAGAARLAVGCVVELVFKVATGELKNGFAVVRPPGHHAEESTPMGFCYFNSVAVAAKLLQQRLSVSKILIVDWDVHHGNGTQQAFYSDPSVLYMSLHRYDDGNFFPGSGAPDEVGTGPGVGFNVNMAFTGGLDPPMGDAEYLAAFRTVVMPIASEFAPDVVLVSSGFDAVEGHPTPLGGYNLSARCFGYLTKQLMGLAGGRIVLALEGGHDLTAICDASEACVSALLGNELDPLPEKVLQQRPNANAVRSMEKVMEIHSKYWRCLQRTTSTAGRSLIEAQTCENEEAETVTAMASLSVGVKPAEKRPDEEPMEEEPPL
T1 sequence (O15379 whole entry): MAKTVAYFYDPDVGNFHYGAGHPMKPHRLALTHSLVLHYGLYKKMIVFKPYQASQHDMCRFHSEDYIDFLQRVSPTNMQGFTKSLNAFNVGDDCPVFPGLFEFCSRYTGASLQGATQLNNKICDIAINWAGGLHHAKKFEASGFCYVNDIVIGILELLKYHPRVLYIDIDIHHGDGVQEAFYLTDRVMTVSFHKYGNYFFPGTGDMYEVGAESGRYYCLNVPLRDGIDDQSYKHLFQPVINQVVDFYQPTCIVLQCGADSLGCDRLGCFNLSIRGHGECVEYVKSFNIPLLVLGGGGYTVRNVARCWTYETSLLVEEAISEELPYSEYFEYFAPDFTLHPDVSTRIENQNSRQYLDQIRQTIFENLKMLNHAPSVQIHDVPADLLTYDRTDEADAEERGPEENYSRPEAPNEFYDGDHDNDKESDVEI
T1 sequence (Q9Y618 395-489 partner limits assumed): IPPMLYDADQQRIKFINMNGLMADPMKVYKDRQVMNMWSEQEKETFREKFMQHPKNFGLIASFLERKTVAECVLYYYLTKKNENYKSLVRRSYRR

In the case of N#Cc1ccc(N2C(=O)C3(CCC3)N(c3ccc(C(=O)NO)c(F)c3)C2=S)cc1C(F)(F)F [Zeta55], the Cl/F [1, 8] was 114.6149 mL/min/kg, the Vz/F [1, 8] was 7.741576 L/kg and the t1/2 ([1]; PO, oral gavage 20 mg/kg, n=4, rats, plasma, 20 mg/kg) was 174 min and 175.5 min. It also gave a half-life ([1]; male, SD, rat, plasma, iv, 5 mg/kg, tail vein injection 5 mg/kg, n=1, rats) of ~48 min, a half-life ([1]; male, SD, rat, plasma, po, 20 mg/kg, oral gavage 20 mg/kg, n=4, rats) of ~174 min and an AUC(0-inf) [1, 9] of 727 ng·h/mL. For the same compound, the Cmax [1, 9] was 1430 ng/mL, the Tmax [1, 9] was 4.98 min and the AUC(0-t) [1, 9] was 722 ng·h/mL. The bioavailability ([1]; male, SD, rat, plasma, PO 20 mg/kg vs IV 5 mg/kg, rats) was 17.6%, the AUC(0-inf) [1, 10] was 555 ng·h/mL and the CL/F [1, 10] was 632 mL/min/kg. For the same compound, the Cmax [1, 10] was 183 ng/mL, the Tmax [1, 10] was 22.5 min and the AUC(0-t) [1, 10] was 508 ng·h/mL. For the same compound, the Vd/F ([1]; male, SD, rat, plasma, PO, oral gavage 20 mg/kg, n=4, rats, read-out: Vz/F) was 166 L/kg, the pIC50 [2] was < 4.70 and the pIC50 [3] was < 4.70. The pIC50 [4] was < 4.70, the “DHT-induced endogenous mRNA and protein expression of TMPRSS2” value [5] was “significantly suppressed” and the “subcellular localization of AR” value [6] was “distributed in both cytoplasm and nucleus”. For the same compound, the pIC50 ([7]; AR luciferase activity assay, MMTV-LUC, with 10 nM DHT) was 6.20, the “AR antagonist activity, AR-mediated expression of reporter gene” value ([7]; in the presence of DHT) was “potently inhibited” and the “AR agonist activity, expression of reporter gene” value ([7]; without DHT, 10 μM) was “did not induce the expression of reporter gene”.
